Laboratory results taken from patent US5977063A, “Alkylated hexapeptides” (Eli Lilly and Company, priority 1998, dated 1999).

What was measured:
Assay type in all cases: cell-based
[1] = system: Enterococcus faecium and faecalis (RESISTANT); conditions: geometric mean of 4-6 isolates
Experimental: (§1) The antibacterial efficacy of the present compounds is illustrated by Table II. The minimal inhibitory concentrations (MICs) were determined using a standard broth micro-dilution assay.

[2] = system: Enterococcus faecium and faecalis (SENSITIVE); assay: MIC, standard broth micro-dilution assay, SENSITIVE enterococci; set-up: unit not given here; conditions: geometric mean of 4-6 isolates
Experimental: as §1

[3] = system: Staphylococcus aureus 446; assay: MIC, standard broth micro-dilution assay, SA 446; set-up: unit not given here
Experimental: as §1

[4] = system: Staphylococcus aureus 489; assay: MIC, standard broth micro-dilution assay, SA 489; set-up: unit not given here
Experimental: as §1

[5] = system: Staphylococcus aureus 447; assay: MIC, standard broth micro-dilution assay, SA 447; set-up: unit not given here
Experimental: as §1

[6] = system: Staphylococcus haemolyticus 105; assay: MIC, standard broth micro-dilution assay, SH 105; set-up: unit not given here
Experimental: as §1

[7] = system: Staphylococcus haemolyticus 415; assay: MIC, standard broth micro-dilution assay, SH 415; set-up: unit not given here
Experimental: as §1

[8] = system: Staphylococcus epidermidis 270; assay: MIC, standard broth micro-dilution assay, SE 270; set-up: unit not given here
Experimental: as §1

[9] = system: Streptococcus pyogenes C203; assay: MIC, standard broth micro-dilution assay, SPY C203; set-up: unit not given here
Experimental: as §1

[10] = system: Streptococcus pneumoniae P1; assay: MIC, standard broth micro-dilution assay, SPN P1; set-up: unit not given here
Experimental: as §1

SMILES | Minimal Inhibitory Concentration (MIC) RESISTANT [1] | Minimal Inhibitory Concentration (MIC) SENSITIVE [2] | Minimal Inhibitory Concentration (MIC) SA 446 [3] | Minimal Inhibitory Concentration (MIC) SA 489 [4] | Minimal Inhibitory Concentration (MIC) SA 447 [5] | Minimal Inhibitory Concentration (MIC) SH 105 [6] | Minimal Inhibitory Concentration (MIC) SH 415 [7] | Minimal Inhibitory Concentration (MIC) SE 270 [8] | Minimal Inhibitory Concentration (MIC) SPY C203 [9] | Minimal Inhibitory Concentration (MIC) SPN P1 [10]
CC1OC(OC2c3ccc(c(Cl)c3)Oc3cc4cc(c3OC3OC(CO)C(O)C(O)C3OC3CC(C)(N)C(O)C(C)O3)Oc3ccc(cc3Cl)C(O)C(NCCCCCCCCCCCCc3ccccc3)C(=O)NC(CC(N)=O)C(=O)NC4C(=O)NC3C(=O)NC2C(=O)NC(C(=O)O)c2cc(O)cc(O)c2-c2cc3ccc2O)CC(C)(N)C1O (centres unmarked) [Example 1, N^1 -(12-PHENYL-n-DODECYL)DESLEUCYL-A82846B] | 13 | 9.2 | 8 | 2 | 2 | 4 | 8 | 4 | 0.125 | 
C[C@@H]1O[C@@H](O[C@@H]2c3ccc(c(Cl)c3)Oc3cc4cc(c3O[C@@H]3O[C@H](CO)[C@@H](O)[C@H](O)[C@H]3O[C@H]3C[C@](C)(NCc5ccc(-c6ccccc6)cc5)[C@@H](O)[C@H](C)O3)Oc3ccc(cc3Cl)[C@@H](O)[C@@H](NCCCCCCCCCCCCc3ccccc3)C(=O)N[C@@H](CC(N)=O)C(=O)N[C@H]4C(=O)N[C@H]3C(=O)N[C@@H]2C(=O)N[C@H](C(=O)O)c2cc(O)cc(O)c2-c2cc3ccc2O)C[C@](C)(N)[C@H]1O [Example 2, N^1 -(12-PHENYL-n-DODECYL)-N^DISACC -(p-PHENYLBENZYL)-DESLEUCYL-A82846B] | 45 | 24 | 32 | 64 | > 64 | > 64 | > 64 | 32 | 4 | ≤ .06
C[C@@H]1O[C@@H](O[C@H]2[C@H](Oc3c4cc5cc3Oc3ccc(cc3Cl)[C@@H](O[C@H]3C[C@](C)(N)[C@@H](O)[C@H](C)O3)[C@@H]3NC(=O)[C@H](NC(=O)[C@@H]5NC(=O)[C@H](CC(N)=O)NC(=O)[C@H](NCc5ccc(-c6ccccc6)cc5)[C@H](O)c5ccc(c(Cl)c5)O4)c4ccc(O)c(c4)-c4c(O)cc(O)cc4[C@@H](C(=O)O)NC3=O)O[C@H](CO)[C@@H](O)[C@@H]2O)C[C@](C)(N)[C@H]1O [Example 3, N^1- (p-PHENYLBENZYL)-DESLEUCYL-A82846B] | > 128 | 21 | 8 | 8 | 8 | 8 | 16 | 8 | ≤ .06 | ≤ .06
C[C@@H]1O[C@@H](O[C@@H]2c3ccc(c(Cl)c3)Oc3cc4cc(c3O[C@@H]3O[C@H](CO)[C@@H](O)[C@H](O)[C@H]3O[C@H]3C[C@](C)(NCc5ccc(-c6ccccc6)cc5)[C@@H](O)[C@H](C)O3)Oc3ccc(cc3Cl)[C@@H](O)[C@@H](NCc3ccc(-c5ccccc5)cc3)C(=O)N[C@@H](CC(N)=O)C(=O)N[C@H]4C(=O)N[C@H]3C(=O)N[C@@H]2C(=O)N[C@H](C(=O)O)c2cc(O)cc(O)c2-c2cc3ccc2O)C[C@](C)(N)[C@H]1O [Example 4, N^1,N^DISACC -BIS(p-PHENYLBENZYL)-DESLEUCYL-A82846B] | 53 | 21 | 4 | 2 | 2 | 2 | 2 | 2 | ≤ .06 | ≤ .06
C[C@@H]1O[C@@H](O[C@@H]2c3ccc(c(Cl)c3)Oc3cc4cc(c3O[C@@H]3O[C@H](CO)[C@@H](O)[C@H](O)[C@H]3O[C@H]3C[C@](C)(NCc5ccc(-c6ccccc6)cc5)[C@@H](O)[C@H](C)O3)Oc3ccc(cc3Cl)[C@@H](O)[C@@H](NCc3ccccc3)C(=O)N[C@@H](CC(N)=O)C(=O)N[C@H]4C(=O)N[C@H]3C(=O)N[C@@H]2C(=O)N[C@H](C(=O)O)c2cc(O)cc(O)c2-c2cc3ccc2O)C[C@](C)(N)[C@H]1O [Example 5, N^1 -BENZYL-N^DISACC -(p-PHENYLBENZYL)-DESLEUCYL-A82846B] | 23 | 9.2 | 2 | 2 | 2 | 2 | 2 | 2 | 0.125 | 0.5
C[C@@H]1O[C@@H](O[C@H]2[C@H](Oc3c4cc5cc3Oc3ccc(cc3Cl)[C@@H](O[C@H]3C[C@](C)(NCc6ccccc6)[C@@H](O)[C@H](C)O3)[C@@H]3NC(=O)[C@H](NC(=O)[C@@H]5NC(=O)[C@H](CC(N)=O)NC(=O)[C@H](NCc5ccccc5)[C@H](O)c5ccc(c(Cl)c5)O4)c4ccc(O)c(c4)-c4c(O)cc(O)cc4[C@@H](C(=O)O)NC3=O)O[C@H](CO)[C@@H](O)[C@@H]2O)C[C@](C)(NCc2ccc(-c3ccccc3)cc2)[C@H]1O [Example 6, N^1,N^MONOSACC -DIBENZYL-N^DISACC -(p-PHENYLBENZYL)-DESLEUCYL-A82846B] | 16 | 6.1 | 2 | 2 | 2 | 0.5 | 1 | 0.5 | 0.125 | 0.5
CCCCCCN[C@H]1C(=O)N[C@@H](CC(N)=O)C(=O)N[C@H]2C(=O)N[C@H]3C(=O)N[C@H](C(=O)N[C@H](C(=O)O)c4cc(O)cc(O)c4-c4cc3ccc4O)[C@H](O[C@H]3C[C@](C)(N)[C@@H](O)[C@H](C)O3)c3ccc(c(Cl)c3)Oc3cc2cc(c3O[C@@H]2O[C@H](CO)[C@@H](O)[C@H](O)[C@H]2O[C@H]2C[C@](C)(NCCCCCC)[C@@H](O)[C@H](C)O2)Oc2ccc(cc2Cl)[C@H]1O [Example 7, N^1,N^DISACC -DIHEXYLDESLEUCYL-A82846B] | > 128 | 111 | 16 | 8 | 8 | 4 | 8 | 16 | 8 | 8
CCCCCCN[C@H]1C(=O)N[C@@H](CC(N)=O)C(=O)N[C@H]2C(=O)N[C@H]3C(=O)N[C@H](C(=O)N[C@H](C(=O)O)c4cc(O)cc(O)c4-c4cc3ccc4O)[C@H](O[C@H]3C[C@](C)(NCCCCCC)[C@@H](O)[C@H](C)O3)c3ccc(c(Cl)c3)Oc3cc2cc(c3O[C@@H]2O[C@H](CO)[C@@H](O)[C@H](O)[C@H]2O[C@H]2C[C@](C)(NCCCCCC)[C@@H](O)[C@H](C)O2)Oc2ccc(cc2Cl)[C@H]1O [Example 8, N^1,N^DISACC,N^MONOSACC -TRI-n-HEXYLDESLEUCYL-A82846B] | 76 | 55 | 16 | 8 | 8 | 4 | 16 | 8 | 1 | 2
C[C@@H]1O[C@@H](O[C@@H]2c3ccc(c(Cl)c3)Oc3cc4cc(c3O[C@@H]3O[C@H](CO)[C@@H](O)[C@H](O)[C@H]3O[C@H]3C[C@](C)(NCc5ccc(O)cc5)[C@@H](O)[C@H](C)O3)Oc3ccc(cc3Cl)[C@@H](O)[C@@H](NCc3ccc(O)cc3)C(=O)N[C@@H](CC(N)=O)C(=O)N[C@H]4C(=O)N[C@H]3C(=O)N[C@@H]2C(=O)N[C@H](C(=O)O)c2cc(O)cc(O)c2-c2cc3ccc2O)C[C@](C)(N)[C@H]1O [Example 9, N^1,N^DISACC -BIS(p-HYDROXYBENZYL)-DESLEUCYL-A82846B] | > 128 | > 128 | 16 | 16 | 16 | 32 | 32 | 32 | 16 | 32
